Data set [1] deals with Staphylococcus aureus. Description: Antibacterial activity against Staphylococcus aureus ATCC 25923 assessed as reduction in microbial growth after 16 to 18 hrs by microbroth dilution method. It is filed as functional. The settings on record: time 16-18 hrs. (Broth dilution looks for growth in wells or tubes with falling amounts of substance.)
The subject of data set [2] is Staphylococcus aureus. Kind of data set: Antibacterial activity against methicillin resistant Staphylococcus aureus ATCC 43300 assessed as reduction in microbial growth after 16 to 18 hrs by microbroth dilution method. It is filed as functional. The settings on record: time 16-18 hrs.
The test system of data set [3] is Staphylococcus aureus. Kind of data set: Antibacterial activity against methicillin resistant Staphylococcus aureus ATCC 62202 assessed as reduction in microbial growth after 16 to 18 hrs by microbroth dilution method. It is filed as functional. The conditions noted are these: time 16-18 hrs.
The subject of data set [4] is Staphylococcus aureus. Kind of data set: Antibacterial activity against methicillin resistant Staphylococcus aureus ATCC 52056 assessed as reduction in microbial growth after 16 to 18 hrs by microbroth dilution method. The conditions noted are these: time 16-18 hrs. It is filed as functional.
In data set [5] the test system is Staphylococcus aureus. Description: Antibacterial activity against methicillin resistant Staphylococcus aureus ATCC513045 assessed as reduction in microbial growth after 16 to 18 hrs by microbroth dilution method. Format: functional. The conditions noted are these: time 16-18 hrs.
In data set [6] the test system is Staphylococcus aureus. Description: Antibacterial activity against methicillin resistant Staphylococcus aureus ATCC515992 assessed as reduction in microbial growth after 16 to 18 hrs by microbroth dilution method. Format: functional. The settings on record: time 16-18 hrs.
Data set [7] deals with Staphylococcus aureus. Description: Antibacterial activity against methicillin resistant Staphylococcus aureus ATCC49800 assessed as reduction in microbial growth after 16 to 18 hrs by microbroth dilution method. It is filed as functional. The conditions noted are these: time 16-18 hrs.
The test system of data set [8] is Staphylococcus aureus. Kind of data set: Antibacterial activity against methicillin resistant Staphylococcus aureus ATCC49025 assessed as reduction in microbial growth after 16 to 18 hrs by microbroth dilution method. Format: functional. The conditions noted are these: time 16-18 hrs.
In data set [9] the test system is Staphylococcus aureus. Description: Antibacterial activity against methicillin resistant Staphylococcus aureus ATCC48073 assessed as reduction in microbial growth after 16 to 18 hrs by microbroth dilution method. It is filed as functional. The settings on record: time 16-18 hrs.
Data set [10] deals with Staphylococcus aureus. Description: Antibacterial activity against methicillin resistant Staphylococcus aureus ATCC48966 assessed as reduction in microbial growth after 16 to 18 hrs by microbroth dilution method. It is filed as functional. The conditions noted are these: time 16-18 hrs.
In data set [11] the test system is Staphylococcus aureus. Description: Antibacterial activity against methicillin resistant Staphylococcus aureus ATCC49008 assessed as reduction in microbial growth after 16 to 18 hrs by microbroth dilution method. Format: functional. The settings on record: time 16-18 hrs.
The subject of data set [12] is Staphylococcus aureus. Kind of data set: Antibacterial activity against methicillin resistant Staphylococcus aureus ATCC48706 assessed as reduction in microbial growth after 16 to 18 hrs by microbroth dilution method. It is filed as functional. The settings on record: time 16-18 hrs.
The test system of data set [13] is Escherichia coli. Description: Antibacterial activity against Escherichia coli ATCC25922 assessed as reduction in microbial growth after 16 to 18 hrs by microbroth dilution method. It is filed as functional. The conditions noted are these: ATCC 25922, time 16-18 hrs.
The subject of data set [14] is Pseudomonas aeruginosa. Description: Antibacterial activity against Pseudomonas aeruginosa ATCC27853 assessed as reduction in microbial growth after 16 to 18 hrs by microbroth dilution method. Format: functional. The settings on record: time 16-18 hrs.
Data set [15] concerns Enterococcus faecalis. Description: Antibacterial activity against Enterococcus faecalis ATCC29212 assessed as reduction in microbial growth after 16 to 18 hrs by microbroth dilution method. It is filed as functional. The conditions noted are these: ATCC 29212, time 16-18 hrs.
In data set [16] the test system is RAW264.7. Description: Cytotoxicity against mouse RAW264.7 cells assessed as cell viability at 10 ug/ml measured after 24 hrs by MTT assay. It is filed as cell-based. The conditions noted are these: raw264.7, 24 h, dose 10 µg/ml. (In general: Tetrazolium dyes change colour on reduction, which living cells bring about.)
Data set [17] has as its system L02. Kind of data set: Cytotoxicity against human L02 cells assessed as cell viability at 10 ug/ml measured after 24 hrs by MTT assay. Format: cell-based. The conditions noted are these: l02, 24 h, dose 10 µg/ml.

Data on ten compounds can be found in ChEMBL document CHEMBL4828717, “Synthetic cajaninstilbene acid derivatives eradicate methicillin-resistant Staphylococcus aureus persisters and biofilms” (Eur J Med Chem, 2021).

In the case of `CC(C)=CCc1c(OC(C)C)cc(/C=C/c2ccc(C(F)(F)F)cc2)c(C(=O)O)c1O`, the MIC (as a rule, the least concentration at which growth counts as inhibited) turned out to be 2 µg/mL in [1]; 1 µg/mL in [2]; 2 µg/mL in data set [3]; 2 µg/mL in data set [4]; 2 µg/mL in [5]; 2 µg/mL in data set [6]. Also, the MIC in data set [7], in [8], in [9], in data set [10], in data set [11] and in data set [12] was 2 µg/mL each time. Also, the MIC in [13], in data set [14] and in data set [15] was over 32 µg/mL throughout. Moreover, the Activity entry in [16] and in [17] was “Toxic” throughout.
Regarding `CC(C)=CCc1c(OC2CCCCCC2)cc(/C=C/c2ccc(F)cc2)c(C(=O)O)c1O`, the MIC in data set [1] worked out at 2 µg/mL; in [2] it was 1 µg/mL; in [3], 2 µg/mL; in data set [4] it was 1 µg/mL; in [5], 2 µg/mL; in [6], 2 µg/mL. For the same compound, the MIC was 4 µg/mL in [7]; 2 µg/mL in data set [8]; 2 µg/mL in data set [9]; 2 µg/mL in [10]; 2 µg/mL in data set [11]; 2 µg/mL in [12]. The MIC in [13], in [14] and in data set [15] was over 32 µg/mL in each case. Moreover, the Activity entry in data set [16] and in [17] was “Toxic” in each case.
Regarding `CC(C)=CCc1c(OCC(F)F)cc(/C=C/c2ccc(C(F)(F)F)cc2)c(C(=O)O)c1O`, the MIC in data set [1], in data set [2], in [3], in data set [4], in [5] and in data set [6] was 2 µg/mL each time. Further, the MIC in [7], in [8], in data set [9], in [10], in [11] and in data set [12] was 2 µg/mL each time. The MIC in data set [13], in data set [14] and in data set [15] was over 32 µg/mL each time. Moreover, the Activity entry in [16] and in [17] was “Toxic” each time.
As to `CC(C)=CCc1c(OCCCF)cc(/C=C/c2ccc(F)cc2)c(C(=O)O)c1O`, the MIC in data set [1] worked out at 4 µg/mL; in [2], 4 µg/mL; in [3] it was 4 µg/mL; in data set [4], 2 µg/mL; in [5], 4 µg/mL; in data set [6], 4 µg/mL. The MIC in [7], in data set [8], in data set [9], in [10], in [11] and in [12] was 4 µg/mL in each case. The MIC in data set [13], in data set [14] and in data set [15] was over 32 µg/mL throughout. The Activity entry in [16] and in data set [17] was “Toxic” in each case.
Consider `CC(C)=CCc1c(OCC(F)F)cc(/C=C/c2ccc(F)cc2)c(C(=O)O)c1O`, for which the MIC in data set [1] was 4 µg/mL; in [2], 4 µg/mL; in data set [3], 4 µg/mL; in data set [4] it was 2 µg/mL; in [5] it was 4 µg/mL; in data set [6] it was 4 µg/mL. Moreover, the MIC in [7], in data set [8], in data set [9], in data set [10], in data set [11] and in [12] was 4 µg/mL throughout. Moreover, the MIC in data set [13], in data set [14] and in data set [15] was over 32 µg/mL in each case. Also, the Activity result in data set [16] and in [17] was “Toxic” each time.
As for `CC(C)=CCc1c(OC2CCCCCC2)cc(/C=C/c2ccc(C(F)(F)F)cc2)c(C(=O)O)c1O`, the MIC was determined as 4 µg/mL in [1]; 1 µg/mL in data set [2]; 2 µg/mL in [3]; 1 µg/mL in [4]; 2 µg/mL in data set [5]; 4 µg/mL in [6]. The MIC in [7], in [8], in data set [9], in [10], in data set [11] and in data set [12] was 4 µg/mL each time. For the same compound, the MIC in [13], in [14] and in data set [15] was over 32 µg/mL in each case. In addition, the Activity result in data set [16] and in [17] was “Toxic” each time.
With `CCCC(CC)Oc1cc(/C=C/c2ccc(C(F)(F)F)cc2)c(C(=O)O)c(O)c1CC=C(C)C` (stereo not given), the minimum inhibitory concentration (MIC) in data set [1] amounted to 4 µg/mL; in data set [2], 2 µg/mL; in data set [3] it was 2 µg/mL; in [4] it was 2 µg/mL; in data set [5] it was 2 µg/mL; in [6] it was 4 µg/mL. Moreover, the MIC in data set [7] is 4 µg/mL; in data set [8], 8 µg/mL; in data set [9], 4 µg/mL; in data set [10] it was 8 µg/mL; in data set [11], 8 µg/mL; in data set [12], 4 µg/mL. Also, the minimum inhibitory concentration (MIC) in data set [13], in data set [14] and in data set [15] was over 32 µg/mL throughout. Moreover, the Activity result in [16] and in [17] was “Toxic” in each case.
Turning to `CC(C)=CCc1c(OCC(F)(F)F)cc(/C=C/c2ccc(C(F)(F)F)cc2)c(C(=O)O)c1O`, the MIC in [1], in data set [2], in data set [3], in data set [4], in [5] and in data set [6] was 2 µg/mL throughout. In addition, the MIC in [7], in [8], in data set [9], in data set [10], in data set [11] and in [12] was 2 µg/mL each time. Further, the MIC in data set [13], in data set [14] and in data set [15] was over 32 µg/mL each time. Also, the Activity result in [16] and in [17] was “Toxic” each time.
As to `CCOc1cc(/C=C/c2ccc(F)cc2)c(C(=O)O)c(O)c1CC=C(C)C`, the MIC in [1] is 4 µg/mL; in data set [2], 2 µg/mL; in data set [3], 4 µg/mL; in data set [4], 2 µg/mL; in data set [5] it was 4 µg/mL; in [6], 4 µg/mL. Also, the MIC came out at 8 µg/mL in data set [7]; 4 µg/mL in [8]; 4 µg/mL in data set [9]; 4 µg/mL in data set [10]; 4 µg/mL in data set [11]; 4 µg/mL in [12]. The MIC in data set [13], in [14] and in data set [15] was over 32 µg/mL in each case. Also, the Activity result in [16] and in [17] was “Toxic” throughout.
In the case of `CCC(CC)Oc1cc(/C=C/c2ccc(C(F)(F)F)cc2)c(C(=O)O)c(O)c1CC=C(C)C`, the MIC stood at 1 µg/mL in data set [1]; 2 µg/mL in data set [2]; 1 µg/mL in [3]; 1 µg/mL in data set [4]; 1 µg/mL in data set [5]; 2 µg/mL in data set [6]. The MIC in data set [7], in data set [8], in data set [9], in [10], in data set [11] and in data set [12] was 2 µg/mL each time. Moreover, the MIC in data set [13], in data set [14] and in [15] was over 32 µg/mL each time. Further, the Activity entry in data set [16] and in data set [17] was “Toxic” in each case.
